Laboratory results taken from ChEMBL document CHEMBL1201862, “PubChem BioAssay data set” (2004).
Activity calls are given as the source filed them.

Experiments:
[1] = biological target: T1, Short transient receptor potential channel 4 (Mus musculus, UniProt Q9QUQ5); test: mouse TRPC4 channel activators, dose response, cell-based, HEK293 TRPC4/mu-opioid, Fluo-4 calcium (AID 434937); type: functional
T1 sequence (Q9QUQ5 whole entry): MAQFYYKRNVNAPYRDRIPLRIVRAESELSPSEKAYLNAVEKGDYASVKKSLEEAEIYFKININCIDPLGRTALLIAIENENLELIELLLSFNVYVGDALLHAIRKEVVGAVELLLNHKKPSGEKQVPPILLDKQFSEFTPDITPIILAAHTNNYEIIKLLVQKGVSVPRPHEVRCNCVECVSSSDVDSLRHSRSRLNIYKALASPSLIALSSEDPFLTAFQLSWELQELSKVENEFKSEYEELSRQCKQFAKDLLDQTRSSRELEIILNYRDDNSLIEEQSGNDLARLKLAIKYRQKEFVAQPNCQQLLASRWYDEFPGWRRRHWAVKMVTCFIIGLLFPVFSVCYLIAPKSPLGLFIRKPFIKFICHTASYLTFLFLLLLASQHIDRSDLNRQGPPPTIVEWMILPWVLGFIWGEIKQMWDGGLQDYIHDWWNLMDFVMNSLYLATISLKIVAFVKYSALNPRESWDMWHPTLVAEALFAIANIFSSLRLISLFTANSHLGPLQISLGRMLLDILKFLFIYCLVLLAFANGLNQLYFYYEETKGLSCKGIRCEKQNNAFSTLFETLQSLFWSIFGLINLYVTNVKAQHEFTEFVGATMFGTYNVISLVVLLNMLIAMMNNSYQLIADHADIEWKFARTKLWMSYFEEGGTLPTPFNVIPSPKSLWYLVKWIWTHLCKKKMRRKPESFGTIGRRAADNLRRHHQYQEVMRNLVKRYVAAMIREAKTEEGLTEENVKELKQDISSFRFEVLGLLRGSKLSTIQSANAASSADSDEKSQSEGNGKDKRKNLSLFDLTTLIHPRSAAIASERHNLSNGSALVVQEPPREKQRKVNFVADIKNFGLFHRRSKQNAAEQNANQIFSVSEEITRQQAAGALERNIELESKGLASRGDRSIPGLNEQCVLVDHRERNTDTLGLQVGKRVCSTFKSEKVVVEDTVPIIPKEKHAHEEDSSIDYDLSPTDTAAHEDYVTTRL

[2] = system: BJ; test: cells; type: functional, cell-based; conditions: Homo sapiens
[3] = cytotoxicity in HEK-293T cells, dose response, cytotoxicity control for TCR NF-kB inhibitor project, luminescence, T-cell screen hits (AID 489026); type: functional, cell-based;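 further: cells exposed to compound about 14 hours before the viability readout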
[4] = Luminescence Cell-Based Dose Retest to Confirm Inhibitors of Cancer Stem Cells. [Related pubchem assays (depositor defined):AID2717, AID2721]; type: functional; conditions: Homo sapiens
[5] = system: BJ; test: cytotoxicity toward Ras-transformed BJeLR fibroblasts, dose response, cell-based, alamar blue fluorescence, cherrypicked samples (AID 2631); type: functional; conditions: Homo sapiens;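 further: confirmatory dose-response assay in RAS-dependent BJ fibroblasts engineered with TERT, LT and ST, with cytotoxicity read by fluorescence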
[6] = cytotoxicity toward DRD oncogenic fibroblasts, dose response, cell-based, non-viral oncogenic, luminescence (AID 1934); type: functional; conditions: Homo sapiens
[7] = system: BJ; test: cytotoxicity toward BJ-TERT fibroblasts, dose response, cell-based, RAS-independent, luminescence (AID 1933); type: functional; conditions: Homo sapiens
[8] = cytotoxicity in HMLE control line with eGFP shRNA, dose response, counter-screen for HMLE_sh_ECad selective toxicity project, cell-based, HMLE_sh_eGFP, luminescence (AID 463074); type: functional, Homo sapiens;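 further: HMLE human mammary epithelial cells expressing control shRNA against eGFP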
[9] = biological target: T2, Tyrosine-protein phosphatase non-receptor type 22 (Homo sapiens, UniProt Q9Y2R2); type: functional
T2 sequence (Q9Y2R2 whole entry): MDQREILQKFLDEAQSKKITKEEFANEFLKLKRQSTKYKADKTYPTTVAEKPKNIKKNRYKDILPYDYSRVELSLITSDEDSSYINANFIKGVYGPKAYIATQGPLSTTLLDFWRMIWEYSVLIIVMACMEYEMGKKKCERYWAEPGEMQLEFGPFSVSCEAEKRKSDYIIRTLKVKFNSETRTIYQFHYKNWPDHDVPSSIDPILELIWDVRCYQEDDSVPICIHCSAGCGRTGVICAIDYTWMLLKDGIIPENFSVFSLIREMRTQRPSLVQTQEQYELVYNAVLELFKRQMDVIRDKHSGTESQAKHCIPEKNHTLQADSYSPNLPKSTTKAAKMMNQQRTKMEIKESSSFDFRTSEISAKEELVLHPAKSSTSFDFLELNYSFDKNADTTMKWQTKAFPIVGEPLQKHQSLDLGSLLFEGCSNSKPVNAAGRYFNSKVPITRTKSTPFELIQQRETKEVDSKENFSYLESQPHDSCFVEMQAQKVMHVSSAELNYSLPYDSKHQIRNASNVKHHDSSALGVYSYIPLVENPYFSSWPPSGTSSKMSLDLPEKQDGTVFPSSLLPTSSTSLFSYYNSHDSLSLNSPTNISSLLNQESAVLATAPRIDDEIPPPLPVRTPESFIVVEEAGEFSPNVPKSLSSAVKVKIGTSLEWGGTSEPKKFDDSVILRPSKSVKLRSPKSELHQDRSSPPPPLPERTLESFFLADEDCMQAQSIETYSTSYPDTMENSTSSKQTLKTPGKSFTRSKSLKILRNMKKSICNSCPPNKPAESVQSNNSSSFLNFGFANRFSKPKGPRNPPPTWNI

[10] = biological target: T2, Tyrosine-protein phosphatase non-receptor type 22; type: functional; remark: listed apart in the source
[11] = biological target: T3, Tyrosine-protein phosphatase non-receptor type 7 (Homo sapiens, UniProt P35236); type: functional
T3 sequence (P35236 whole entry): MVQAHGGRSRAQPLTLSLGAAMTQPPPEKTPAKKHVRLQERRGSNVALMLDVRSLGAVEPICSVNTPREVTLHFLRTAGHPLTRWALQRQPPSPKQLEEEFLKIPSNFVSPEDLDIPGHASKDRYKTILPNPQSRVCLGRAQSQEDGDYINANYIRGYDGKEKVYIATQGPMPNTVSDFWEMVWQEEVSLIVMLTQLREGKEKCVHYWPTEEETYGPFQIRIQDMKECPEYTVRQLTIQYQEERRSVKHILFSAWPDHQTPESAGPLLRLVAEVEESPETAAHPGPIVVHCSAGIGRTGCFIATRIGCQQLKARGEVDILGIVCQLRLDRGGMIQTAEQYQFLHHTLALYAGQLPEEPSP

[12] = biological target: T4, Kappa-type opioid receptor (Homo sapiens, UniProt P41145); type: functional
[13] = biological target: Beta-galactosidase (Escherichia coli, UniProt Q8VNN2); type: functional
[14] = biological target: Mu-type opioid receptor (Homo sapiens, UniProt P35372); test: HTS Image-Based Screen for Agonists of the MOR Receptor. [Related pubchem assays (depositor defined):AID1777, AID1785, AID1786, AID2133]; type: functional;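 further: imaging of beta-arrestin GFP recruitment into spots after receptor activation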
[15] = system: Vero; test: cells; type: functional; conditions: Chlorocebus sabaeus
[16] = biological target: T5, Ubiquitin-conjugating enzyme E2 N (Homo sapiens, UniProt P61088); type: functional
T5 sequence (P61088 whole entry): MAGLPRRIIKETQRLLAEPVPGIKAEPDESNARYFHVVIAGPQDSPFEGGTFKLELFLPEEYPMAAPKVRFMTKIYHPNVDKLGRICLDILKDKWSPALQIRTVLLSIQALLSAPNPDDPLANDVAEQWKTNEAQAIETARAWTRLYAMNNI

[17] = biological target: T4, Kappa-type opioid receptor; type: functional; remark: listed apart in the source
[18] = biological target: T6, Delta-type opioid receptor (Homo sapiens, UniProt P41143); test: HTS Image-Based Screen for Antagonists of the DOR Receptor. [Related pubchem assays (depositor defined):AID1777, AID1785, AID1786, AID2133]; type: functional
[19] = biological target: T6, Delta-type opioid receptor; test: HTS Image-Based Screen for Agonists of the DOR Receptor. [Related pubchem assays (depositor defined):AID1777, AID1786, AID2133]; type: functional
[20] = biological target: T7, RNA-editing ligase 1, mitochondrial (Trypanosoma brucei brucei, UniProt P86926); test: TbREL1 ligase inhibitors, dose response, biochemical, fluorescence, Trypanosoma brucei (AID 1117295); type: functional
T7 sequence (P86926 whole entry): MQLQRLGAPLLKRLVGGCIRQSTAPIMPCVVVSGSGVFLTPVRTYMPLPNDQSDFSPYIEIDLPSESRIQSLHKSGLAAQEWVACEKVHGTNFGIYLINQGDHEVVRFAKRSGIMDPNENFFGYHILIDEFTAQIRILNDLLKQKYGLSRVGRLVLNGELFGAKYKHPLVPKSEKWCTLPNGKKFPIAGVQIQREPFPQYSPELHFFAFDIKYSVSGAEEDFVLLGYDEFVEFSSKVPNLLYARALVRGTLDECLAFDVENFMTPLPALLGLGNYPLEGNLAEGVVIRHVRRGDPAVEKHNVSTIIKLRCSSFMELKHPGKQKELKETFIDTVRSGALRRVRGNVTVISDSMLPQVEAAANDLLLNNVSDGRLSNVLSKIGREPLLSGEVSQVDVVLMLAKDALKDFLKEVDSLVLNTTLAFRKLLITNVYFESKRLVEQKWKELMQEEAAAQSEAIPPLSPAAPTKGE

[21] = biological target: T5, Ubiquitin-conjugating enzyme E2 N; type: functional; remark: listed apart in the source
[22] = biological target: T8, Bcl-2-related protein A1 (Mus musculus, UniProt Q07440); type: functional;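 further: confirmatory dose–response counterscreen on Bfl-1, used to check hits from a UBC13 polyubiquitin inhibitor campaign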
T8 sequence (Q07440 whole entry): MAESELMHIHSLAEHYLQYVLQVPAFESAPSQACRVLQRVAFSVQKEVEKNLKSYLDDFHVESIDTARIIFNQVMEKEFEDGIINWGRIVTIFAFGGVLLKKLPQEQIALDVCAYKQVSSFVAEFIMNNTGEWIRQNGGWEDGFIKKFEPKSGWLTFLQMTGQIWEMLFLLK

[23] = biological target: T9, G-protein coupled receptor 55 (Homo sapiens, UniProt Q9Y2T6); test: GPR55 antagonists, SAR follow-up, counter-screen for GPR35 antagonist project, imaging, image-based (AID 2397); type: functional
[24] = biological target: T9, G-protein coupled receptor 55; test: SAR analysis of selective Agonists of GPR55 using an Image-Based Assay - Set 2. [Related pubchem assays (depositor defined):AID1961, AID1965]; type: functional
[25] = biological target: T10, G-protein coupled receptor 35 (Homo sapiens, UniProt Q9HC97); test: SAR analysis of Antagonists of the GPR35 Receptor using an Image-Based Assay - Set 4. [Related pubchem assays (depositor defined):[…]]; type: functional
[26] = biological target: T10, G-protein coupled receptor 35; test: SAR analysis of Agonists of the GPR35 Receptor using an Image-Based Assay - Set 3. [Related pubchem assays (depositor defined):AID1961, AID1965]; type: functional
[27] = biological target: T11, Cannabinoid receptor 2 (Homo sapiens, UniProt P34972); test: SAR analysis of agonists of the Cannabinoid Receptor 2 using an Image-Based Assay - Set 2. [Related pubchem assays (depositor defined):AID1961, AID1965]; type: functional
[28] = biological target: T12, Cannabinoid receptor 1 (Homo sapiens, UniProt P21554); test: SAR analysis of antagonists of the Cannabinoid Receptor 1 using an Image-Based Assay - Set 3. [Related pubchem assays (depositor defined):AID1961, AID1965]; type: functional
[29] = biological target: T12, Cannabinoid receptor 1; test: SAR analysis of agonists of the Cannabinoid Receptor 1 using an Image-Based Assay - Set 3. [Related pubchem assays (depositor defined):AID1961, AID1965]; type: functional
[30] = biological target: T11, Cannabinoid receptor 2; test: SAR analysis of antagonists of the Cannabinoid Receptor 2 using an Image-Based Assay - Set 2. [Related pubchem assays (depositor defined):AID1961, AID1965]; type: functional

T11 sequence (P34972 whole entry): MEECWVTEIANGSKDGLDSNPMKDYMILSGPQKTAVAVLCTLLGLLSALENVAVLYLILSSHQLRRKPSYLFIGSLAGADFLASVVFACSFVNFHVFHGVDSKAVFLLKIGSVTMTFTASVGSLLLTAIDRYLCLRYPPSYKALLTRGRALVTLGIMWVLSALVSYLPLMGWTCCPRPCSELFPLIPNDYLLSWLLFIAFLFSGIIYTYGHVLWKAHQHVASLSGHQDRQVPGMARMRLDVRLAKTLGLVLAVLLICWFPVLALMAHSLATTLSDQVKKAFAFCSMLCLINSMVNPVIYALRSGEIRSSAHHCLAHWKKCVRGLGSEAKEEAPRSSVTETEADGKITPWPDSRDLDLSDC
T12 sequence (P21554 whole entry): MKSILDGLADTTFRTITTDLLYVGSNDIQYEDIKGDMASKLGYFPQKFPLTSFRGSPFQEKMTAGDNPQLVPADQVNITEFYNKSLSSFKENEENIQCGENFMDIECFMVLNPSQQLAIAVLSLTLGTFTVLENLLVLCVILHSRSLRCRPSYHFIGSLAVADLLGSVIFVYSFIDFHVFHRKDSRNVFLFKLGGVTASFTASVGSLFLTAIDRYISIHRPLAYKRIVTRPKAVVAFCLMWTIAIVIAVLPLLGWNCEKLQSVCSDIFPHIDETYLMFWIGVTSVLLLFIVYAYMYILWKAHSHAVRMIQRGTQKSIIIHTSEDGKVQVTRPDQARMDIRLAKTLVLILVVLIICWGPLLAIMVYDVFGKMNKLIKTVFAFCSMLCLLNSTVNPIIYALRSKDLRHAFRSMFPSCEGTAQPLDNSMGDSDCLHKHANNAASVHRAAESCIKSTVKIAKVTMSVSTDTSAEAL
T9 sequence (Q9Y2T6 whole entry): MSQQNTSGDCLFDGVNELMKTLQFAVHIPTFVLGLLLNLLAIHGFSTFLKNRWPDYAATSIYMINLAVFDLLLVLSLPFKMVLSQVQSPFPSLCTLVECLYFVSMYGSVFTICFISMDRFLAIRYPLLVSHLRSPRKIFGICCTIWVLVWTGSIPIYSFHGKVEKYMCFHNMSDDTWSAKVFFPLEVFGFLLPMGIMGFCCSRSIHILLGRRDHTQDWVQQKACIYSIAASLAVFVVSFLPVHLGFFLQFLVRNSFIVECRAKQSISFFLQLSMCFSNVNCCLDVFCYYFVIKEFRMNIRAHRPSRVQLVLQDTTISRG
T10 sequence (Q9HC97 whole entry): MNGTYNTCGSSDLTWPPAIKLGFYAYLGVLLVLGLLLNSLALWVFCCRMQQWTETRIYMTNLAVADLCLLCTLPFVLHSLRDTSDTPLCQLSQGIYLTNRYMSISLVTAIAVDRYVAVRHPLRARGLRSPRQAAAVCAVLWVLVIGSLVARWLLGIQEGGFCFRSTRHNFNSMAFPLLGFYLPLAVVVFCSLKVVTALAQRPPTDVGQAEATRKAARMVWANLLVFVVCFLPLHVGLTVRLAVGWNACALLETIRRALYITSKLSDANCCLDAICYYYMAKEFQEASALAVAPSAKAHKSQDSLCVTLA
T6 sequence (P41143 whole entry): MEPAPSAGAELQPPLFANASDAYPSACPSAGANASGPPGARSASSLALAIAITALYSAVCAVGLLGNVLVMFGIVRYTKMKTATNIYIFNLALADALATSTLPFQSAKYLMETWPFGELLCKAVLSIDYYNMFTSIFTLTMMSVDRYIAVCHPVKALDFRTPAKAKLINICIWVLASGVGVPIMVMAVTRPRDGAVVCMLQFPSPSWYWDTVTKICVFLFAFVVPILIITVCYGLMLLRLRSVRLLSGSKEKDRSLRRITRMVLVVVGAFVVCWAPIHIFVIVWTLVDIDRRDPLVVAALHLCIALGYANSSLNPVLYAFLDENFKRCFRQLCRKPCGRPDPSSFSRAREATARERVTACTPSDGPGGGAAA
T4 sequence (P41145 whole entry): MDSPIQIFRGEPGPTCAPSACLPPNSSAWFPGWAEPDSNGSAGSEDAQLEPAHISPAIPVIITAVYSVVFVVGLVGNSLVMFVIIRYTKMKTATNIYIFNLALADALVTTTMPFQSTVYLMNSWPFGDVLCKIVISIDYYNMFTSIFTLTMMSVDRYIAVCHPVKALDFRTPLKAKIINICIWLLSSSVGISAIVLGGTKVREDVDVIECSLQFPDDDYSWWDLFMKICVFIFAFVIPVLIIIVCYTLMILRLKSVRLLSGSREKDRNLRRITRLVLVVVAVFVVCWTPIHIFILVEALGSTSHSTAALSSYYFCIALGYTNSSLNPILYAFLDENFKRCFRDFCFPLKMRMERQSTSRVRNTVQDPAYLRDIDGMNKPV
Chain of Mu-type opioid receptor (P35372 whole entry): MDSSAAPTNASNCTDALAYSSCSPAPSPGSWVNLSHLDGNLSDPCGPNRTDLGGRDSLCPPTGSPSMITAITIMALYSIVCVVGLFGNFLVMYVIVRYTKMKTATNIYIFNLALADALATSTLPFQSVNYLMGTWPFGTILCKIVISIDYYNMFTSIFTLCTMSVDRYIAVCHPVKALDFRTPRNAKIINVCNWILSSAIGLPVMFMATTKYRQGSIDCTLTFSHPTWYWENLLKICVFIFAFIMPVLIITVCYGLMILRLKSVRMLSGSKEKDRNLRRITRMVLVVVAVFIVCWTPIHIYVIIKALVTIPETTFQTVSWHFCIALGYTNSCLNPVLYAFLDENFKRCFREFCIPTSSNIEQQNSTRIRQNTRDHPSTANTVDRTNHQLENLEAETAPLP
Chain of Beta-galactosidase (Q8VNN2 whole entry): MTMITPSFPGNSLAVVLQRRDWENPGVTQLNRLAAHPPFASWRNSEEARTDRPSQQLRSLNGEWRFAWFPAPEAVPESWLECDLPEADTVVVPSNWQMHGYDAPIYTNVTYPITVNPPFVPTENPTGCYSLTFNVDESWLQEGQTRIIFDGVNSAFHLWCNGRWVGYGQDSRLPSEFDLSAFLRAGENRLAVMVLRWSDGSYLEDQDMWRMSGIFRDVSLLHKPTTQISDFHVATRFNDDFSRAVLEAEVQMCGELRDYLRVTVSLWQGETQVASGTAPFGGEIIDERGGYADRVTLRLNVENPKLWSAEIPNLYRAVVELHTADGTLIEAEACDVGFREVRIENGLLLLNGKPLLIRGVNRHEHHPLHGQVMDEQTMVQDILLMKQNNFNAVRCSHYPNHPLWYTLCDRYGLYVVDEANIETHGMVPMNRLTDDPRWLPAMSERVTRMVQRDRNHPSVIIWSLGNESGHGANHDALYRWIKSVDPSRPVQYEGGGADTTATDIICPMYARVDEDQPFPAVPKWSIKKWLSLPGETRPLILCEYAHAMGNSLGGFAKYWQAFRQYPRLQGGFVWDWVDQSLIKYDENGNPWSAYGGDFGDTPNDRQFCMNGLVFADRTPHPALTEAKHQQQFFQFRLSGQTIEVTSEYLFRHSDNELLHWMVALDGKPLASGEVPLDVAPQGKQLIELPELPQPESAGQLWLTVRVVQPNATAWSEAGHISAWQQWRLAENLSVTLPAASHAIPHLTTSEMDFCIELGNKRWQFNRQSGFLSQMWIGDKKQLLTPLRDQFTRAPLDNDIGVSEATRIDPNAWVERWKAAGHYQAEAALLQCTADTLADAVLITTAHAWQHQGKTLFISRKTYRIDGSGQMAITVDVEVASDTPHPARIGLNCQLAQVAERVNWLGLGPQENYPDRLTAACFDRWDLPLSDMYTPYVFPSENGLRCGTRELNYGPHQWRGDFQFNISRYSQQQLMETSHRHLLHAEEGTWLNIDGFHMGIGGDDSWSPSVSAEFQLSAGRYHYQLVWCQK

Cc1ccc(-n2cc(CNCC3CC(=O)N(C4CC4)C3)c(-c3cccc(C)c3)n2)cc1 (centres undefined)
EC50 [1]: 6.68 µM (active)

Cc1ccc(C)c(NS(=O)(=O)c2ccc(-c3cnc(C4CC4)o3)cc2)c1
EC50 [2]: 0.298 µM (active) | IC50 [3]: 54 µM (inactive) | AC50 [4]: < 0.16 µM (active) | EC50 [5]: < 0.104 µM (active) | EC50 [6]: < 0.12 µM (active) | EC50 [7]: 0.15 µM (active) | AC50 [8]: 8.44 µM (inconclusive)

O=C1OC(c2ccc(Br)cc2)=N/C1=C\c1ccco1
IC50 [9]: > 79.4 µM (inactive) | IC50 [10]: > 79.4 µM (inactive) | IC50 [11]: > 79.4 µM (inactive)

COc1ccc(C[C@H]2CN3C(=NC[C@@H]3C(C)C)N2C[C@H](C)NC(=O)c2ccc(C)c(Br)c2)cc1
IC50 [12]: 2.07 µM | EC50 [13]: > 31.5 µM (inactive) | EC50 [14]: > 32 µM (inactive) | CC50 [15]: 16.3 µM (active) | IC50 [16]: > 20 µM (inactive) | IC50 [17]: 6.35 µM (active) | IC50 [18]: > 32 µM (inactive) | EC50 [19]: > 32 µM (inactive) | IC50 [20]: > 96.6 µM (inactive)

COc1ccccc1NC(=O)c1cc(S(=O)(=O)N2CCCCCC2)ccc1F
IC50 [21]: 9.99 µM (active) | IC50 [16]: 10.6 µM (active) | IC50 [22]: > 20 µM (inactive)

O=C(NNC(=O)c1nn(-c2ccc(F)cc2)ccc1=O)c1ccc(C(F)(F)F)cc1
IC50 [21]: 10.2 µM (active) | IC50 [16]: 16.7 µM (active) | IC50 [22]: > 20 µM (inactive)

Clc1ccccc1Cn1ncc2c(N3CCN(c4ccccc4)CC3)ncnc21
IC50 [23]: > 32 µM (inactive)

CN(C)S(=O)(=O)c1ccc(Cl)c(C(=O)N2CCN(c3ccc([N+](=O)[O-])cc3)CC2)c1
EC50 [24]: 6.98 µM (active) | IC50 [25]: > 32 µM (inactive) | EC50 [26]: > 32 µM (inactive) | EC50 [27]: > 32 µM (inactive) | IC50 [28]: > 32 µM (inactive) | EC50 [29]: > 32 µM (inactive) | IC50 [30]: > 32 µM (inactive)

O=C(NC1CCCN(Cc2ccc(Cl)cc2)C1)C1CCC1 (centres undefined)
EC50 [1]: 1.33 µM (active)

CC(C)Oc1ccc(S(=O)(=O)N2CCOCC2)cc1NC(=O)c1cc2c(s1)CCCCC2
EC50 [24]: > 32 µM (inactive) | IC50 [25]: > 32 µM (inactive) | EC50 [26]: > 32 µM (inactive) | EC50 [27]: > 32 µM (inactive) | IC50 [28]: 27.5 µM (inactive) | EC50 [29]: > 32 µM (inactive) | IC50 [30]: > 32 µM (inactive)

CN(C)/N=C/c1ccc(Sc2ccc([N+](=O)[O-])cc2[N+](=O)[O-])o1
AC50 [4]: 22.5 µM (active) | AC50 [8]: 30.2 µM (active)
